Tested on: influenza viruses
Assay type: cell-based, influenza virus

In the case of `Cc1[nH]c2ccc(-c3nnc(SCC(=O)N4CCCC4)o3)cc2c1C` [Compound A3], the “generation of A3-resistant influenza viruses” value is reported as “unsuccessful”.

From patent US9096585B2 (Icahn School of Medicine at Mount Sinai, priority 2010, dated 2015)
